# Tests used:
# [1] = system: Staphylococcus aureus (ATCC 29213); experiment: MBC by sub-culture from wells without growth; format: cell-based; conditions: ATCC29213, S.aureus
# Description: Staphylococcus aureus (ATCC 29213) […]
# ATCC: American Type Culture Collection; NRRL: Northern Regional Research Laboratory The compounds 2(a-c) obtained could only be completely solubilised with dimethyl sulphoxide (DMSO) and the highest possible stock solutions of 50 mg.mL-1 were prepared. […]
# 3.1. Determination of Minimum Inhibition Concentration (MIC)
# The minimum inhibition concentration (MIC) values of the compounds 2(a-c) against the test bacteria used in the study were determined according to the broth microdilution method.[1-2] MHB or SDB was used as test medium and bacterial and yeast suspensions were prepared at 0.5 Mc Farland concentration for each test bacteria. Double layer serial dilutions were prepared in "U" type 96-well microtiter plates. Medium+bacteria suspensions containing only medium in the first row, medium+bacteria in the second row and the final concentrations of the synthesised substances in the other rows between 25 mg.mL-1 and […] were added to the wells with a final volume of 200
# μL. Ampicillin, Kanamycin and Amphotericin B standard antibiotics were used as positive controls.
# Bacteria were incubated at 37±0.1 °C and C. albicans at 30±0.1 °C for 24-48 hours and the lowest concentration without growth was determined as MIC. Tests were performed in two parallel runs and mean values were given as a result. In order to estimate “the minimum bactericidal/fungicidal concentrations (MBC/MFC) of the synthesised acrylonitrile derivatives “needed to indicate […] killing of the original inoculum,” 10 μl was taken from the wells with no observed growth and further sub-cultured onto their agar media (MHA and SDA for bacterial and fungal strains, respectively).[3] […]
# [2] = system: mouse fibroblast cells (L929, CCL‐1); experiment: Cytotoxicity on healthy cells, CCK8 cell viability; format: cell-based
# Text: (§1) We investigated the cytotoxic effects of acrylonitrile derivatives 2(a–c) on human lung carcinoma (A549, CCL‐185) cells purchased from American Culture Collection and human breast carcinoma (MCF‐7) cells purchased from Republic of Turkey Ministry of Agriculture and Forestry Şap Institute, (HUKUK, 00092502), In addition, mouse fibroblast cells (L929, CCL‐1) purchased from American Culture Collection were used to observe the effects of the compounds on healthy cells. In 25 T Flask, A549 cells were grown in dulbecco's modified eagle's medium, MCF‐7, and L929 cells were grown in eagle's minimum essential medium (EMEM), 10% fetal bovine serum and 1% Penicillin‐Streptomycin at 37 °C in a 5% CO2 and 100% humidified incubator. Cell proliferation was checked every day. Cells were taken into the experiment when the cell density reached 70% to 80%. (See Supporting Information for experimental preparation of biological studies).
# (§2) The compounds 2a, 2b, and 2c were dissolved in 99.8% Dimethyl sulfoxide (DMSO) respectively, as
# (§3) 10 mM main stock. To prepare the doses of acrylonitrile compounds used in the experiment to be
# (§4) applied to the cells, five different concentrations of 31.25; 62.5; 125; 250 and 500 μM were prepared
# (§5) by diluting the main stock solutions (10 mM) with the medium selected according to the cells. 5-
# (§6) Fluorouracil (5-FU) was selected as a positive control in the study. After the 5-FU main stock solution
# (§7) was dissolved with DMSO to be 10 mM, the concentrations to be used were diluted with the selected
# (§8) media and made ready for the experimental plan. The concentrations used for 5-FU were prepared in
# (§9) the same doses used for acrylonitrile derivatives. For the negative control group, groups containing
# (§10) only media and no substance were used. Prepared acrylonitrile compounds and 5-FU concentrations
# (§11) were added to the wells in three replicates for each dose, and their effects on cell viability at 24 and 48
# (§12) Trypan blue solution (Gibco, 1525061) was used to distinguish between living and dead cells in the
# (§13) study. Trypan blue passes uncontrollably through the membrane of dead cells that have lost their cell
# (§14) membrane integrity and stains the cell blue. Living cells, on the other hand, are not stained because
# (§15) Live cell counts were performed using trypan blue using a
# (§16) cell counter (Logos Luna II).
# (§17) In order to detach the cells adhering to the flasks from the bottom, 500 μL of 0.25% Trypsin-EDTA
# (§18) (Gibco, 15400054) solution was added and treated for five minutes.
# (§19) detach from the bottom under an inverted microscope (Zeiss Primovert, Germany), medium containing
# (§20) 10% FBS was added. After centrifugation at 300 g for 5 minutes and discarding the medium, 1 mL of
# (§21) medium was added and the cells were seeded into 96-well culture dishes as 1x10^4 cells in 100 μL per
# (§22) Cell Counting Kit 8 (CCK8; Medchem, 146436) was used to determine cell viability. After adding 20 μL
# (§23) of CCK8 solution to each well in the dark, 96-well culture dishes were wrapped with aluminum foil and
# (§24) kept in a CO2 incubator at 37 °C for 2 hr. Then, it was automatically read with a microplate reader
# (§25) (Chromate) at 450 and 630 nm wavelengths. The following formula was used to determine cell
# (§26) % Viability = (Sample Well−Blank) (Negative Control−Blank)×100 (1)
# (§27) The half-maximal inhibitory concentration (IC50) was calculated as 50% cell death causing dose
# (§28) compared to the control group. All data are given as the mean percent fraction of control ± SEM.
# (§29) Statistical analysis was done by one-way analysis of variance (ANOVA), followed by Tukey’s multiple
# (§30) comparison tests. IBM SPSS Statistics 22 was used to utilize statistical analysis. […]
# [3] = Cytotoxicity on healthy cells, CCK8 cell viability; format: cell-based, mouse; conditions: mouse, L929 mouse fibroblast cells, read-out: Cytotoxic activity IC50; for IC50 at 24 h: L929, 24 h; for IC50 at 48 h: L929, 48 h
# Text: as §1, §2, §3, §4, §5, §6, §7, §8, §9, §10, §11, §12, §13, §14, §15, §16, §17, §18, §19, §20, §21, §22, §23, §24, §25, §26, §27, §28, §29, §30
structure (smiles),measurement,setting,value
"COc1ccc(C=C(C#N)c2ccccc2)cc1 [2a, 3‐(4‐methoxyphenyl)‐2‐phenylacrylonitrile]",MBC,[1],25 mg/mL
same,decrease in cell viability,"[2]; L929, 24 h, 31.25 μM",13%
same,decrease in cell viability,"[2]; L929, 24 h, 62.5 μM",19%
same,decrease in cell viability,"[2]; L929, 24 h, 125 μM",16%
same,decrease in cell viability,"[2]; L929, 24 h, 250 μM",35%
same,decrease in cell viability,"[2]; L929, 24 h, 500 μM",73%
same,decrease in cell viability,"[2]; L929, 48 h, 31.25 μM",52%
same,decrease in cell viability,"[2]; L929, 48 h, 62.5 μM",53%
same,decrease in cell viability,"[2]; L929, 48 h, 125 μM",55%
same,decrease in cell viability,"[2]; L929, 48 h, 250 μM",54%
same,decrease in cell viability,"[2]; L929, 48 h, 500 μM",87%
same,IC50 at 24 h,[3],351 µM
same,IC50 at 48 h,[3],< 31.2 µM
COc1ccc(/C=C(\C#N)c2ccc(F)cc2)cc1 [2b],MBC,[1],25 mg/mL
same,decrease in cell viability,"[2]; L929, 24 h, 31.25 μM",45%
same,decrease in cell viability,"[2]; L929, 24 h, 62.5 μM",44%
same,decrease in cell viability,"[2]; L929, 24 h, 125 μM",43%
same,decrease in cell viability,"[2]; L929, 24 h, 250 μM",50%
same,decrease in cell viability,"[2]; L929, 24 h, 500 μM",75%
same,IC50,"[2]; L929, 24 h, read-out: Cytotoxic activity IC50",250 µM
same,decrease in cell viability,"[2]; L929, 48 h, 31.25 μM",52%
same,decrease in cell viability,"[2]; L929, 48 h, 62.5 μM",54%
same,decrease in cell viability,"[2]; L929, 48 h, 125 μM",53%
same,decrease in cell viability,"[2]; L929, 48 h, 250 μM",53%
same,decrease in cell viability,"[2]; L929, 48 h, 500 μM",80%
same,IC50 at 24 h,[3],< 250 µM
same,IC50 at 48 h,[3],< 31.2 µM
COc1ccc(/C=C(\C#N)c2cc(C(F)(F)F)cc(C(F)(F)F)c2)cc1 [2c],MBC,[1],12.5 mg/mL
same,decrease in cell viability,"[2]; L929, 24 h, 31.25 μM",8%
same,decrease in cell viability,"[2]; L929, 24 h, 62.5 μM",10%
same,decrease in cell viability,"[2]; L929, 24 h, 125 μM",19%
same,decrease in cell viability,"[2]; L929, 24 h, 250 μM",12%
same,decrease in cell viability,"[2]; L929, 24 h, 500 μM",71%
same,decrease in cell viability,"[2]; L929, 48 h, 31.25 μM",14%
same,decrease in cell viability,"[2]; L929, 48 h, 62.5 μM",16%
same,decrease in cell viability,"[2]; L929, 48 h, 125 μM",20%
same,decrease in cell viability,"[2]; L929, 48 h, 250 μM",24%
same,decrease in cell viability,"[2]; L929, 48 h, 500 μM",80%
same,IC50 at 24 h,[3],410 µM
same,IC50 at 48 h,[3],391 µM

# Reference: article PMC12598805, “Crystal Structure–Activity Relationship of Some MeO Phenylacrylonitriles: Dual Antimicrobial–Cytotoxic Effects and in Silico Perspectives” (ChemistryOpen, 2025)
